Results from ChEMBL document CHEMBL1201862, “PubChem BioAssay data set” (2004).
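Exposure lasted 48 hours, with cells grown in 96-well plates and compounds tested at five concentrations. Abbreviation: GI50, concentration required for 50% inhibition of growth.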 Active and inactive are the calls of the source. Cut-off read from the data, not from the text of the source: active = GI50 up to about 1.1 µM and inactive = higher.

Legend:
Test in all cases: growth of human tumour cells (NCI), 48 h
[1] = test system: A549
[2] = test system: ACHN
[3] = test system: CAKI-1
[4] = test system: CCRF-CEM
[5] = test system: KM12
[6] = test system: Malme-3M
[7] = test system: NCI-H226
[8] = test system: OVCAR-3
[9] = test system: OVCAR-5
[10] = test system: RPMI-8226
[11] = test system: SF-268
[12] = test system: SF-295
[13] = test system: SF-539
[14] = test system: SK-MEL-28
[15] = test system: SN12C
[16] = test system: SW-620
[17] = test system: HT-29
[18] = test system: SR
[19] = test system: HL-60
[20] = test system: SNB-75

Row | SMILES | GI50 [1] | GI50 [2] | GI50 [3] | GI50 [4] | GI50 [5] | GI50 [6] | GI50 [7] | GI50 [8] | GI50 [9] | GI50 [10] | GI50 [11] | GI50 [12] | GI50 [13] | GI50 [14] | GI50 [15] | GI50 [16] | GI50 [17] | GI50 [18] | GI50 [19] | GI50 [20]
1 | O=C1Nc2ccccc2[C@]12C[C@H]2c1ccccn1 | > 100 µM (inactive) | > 100 µM (inactive) | > 100 µM (inactive) | > 100 µM (inactive) | > 100 µM (inactive) | > 100 µM (inactive) | 62.8 µM (inactive) | > 100 µM (inactive) | > 100 µM (inactive) | > 100 µM (inactive) | > 100 µM (inactive) | > 100 µM (inactive) | > 100 µM (inactive) | > 100 µM (inactive) | > 100 µM (inactive) | > 100 µM (inactive) |  |  |  | 
2 | CCCCNC(=S)Nc1nc(C(=O)NNC(=S)NC2CCCCC2)cs1 | > 100 µM (inactive) | 62.7 µM (inactive) | > 100 µM (inactive) | 67.6 µM (inactive) | > 100 µM (inactive) | > 100 µM (inactive) | > 100 µM (inactive) | 91.8 µM (inactive) | > 100 µM (inactive) | > 100 µM (inactive) | > 100 µM (inactive) | > 100 µM (inactive) | > 100 µM (inactive) |  | > 100 µM (inactive) | > 100 µM (inactive) | > 100 µM (inactive) | 8.07 µM (inactive) |  | 
3 | O=S(=O)(N=S(c1ccccc1)c1ccccc1)c1ccccc1 | > 100 µM (inactive) | > 100 µM (inactive) |  | > 100 µM (inactive) | > 100 µM (inactive) | > 100 µM (inactive) | > 100 µM (inactive) | > 100 µM (inactive) | > 100 µM (inactive) | > 100 µM (inactive) | > 100 µM (inactive) | > 100 µM (inactive) | > 100 µM (inactive) | > 100 µM (inactive) | > 100 µM (inactive) | > 100 µM (inactive) | > 100 µM (inactive) | > 100 µM (inactive) | > 100 µM (inactive) | 
4 | [O-][N+]1=C2CCC/C(=N/O)C2(O)C2CCCCC21N1CCOCC1 (stereo not given) | > 100 µM (inactive) | > 100 µM (inactive) | > 100 µM (inactive) | > 100 µM (inactive) | > 100 µM (inactive) | > 100 µM (inactive) | > 100 µM (inactive) | > 100 µM (inactive) | > 100 µM (inactive) |  | > 100 µM (inactive) | > 100 µM (inactive) | > 100 µM (inactive) | > 100 µM (inactive) | > 100 µM (inactive) | > 100 µM (inactive) | > 100 µM (inactive) | > 100 µM (inactive) |  | > 100 µM (inactive)
5 | O=C1C[C@@H]2[C@@H](C=CC23CCCC3)N1O | > 100 µM (inactive) | > 100 µM (inactive) | > 100 µM (inactive) | > 100 µM (inactive) | > 100 µM (inactive) | > 100 µM (inactive) | > 100 µM (inactive) | > 100 µM (inactive) | > 100 µM (inactive) | > 100 µM (inactive) | > 100 µM (inactive) | > 100 µM (inactive) | > 100 µM (inactive) | > 100 µM (inactive) | > 100 µM (inactive) | > 100 µM (inactive) | > 100 µM (inactive) |  | > 100 µM (inactive) | > 100 µM (inactive)
6 | Nc1ncnc2c1cnn2Cc1ccc(Cl)cc1 | > 100 µM (inactive) | > 100 µM (inactive) |  | > 100 µM (inactive) | > 100 µM (inactive) |  | > 100 µM (inactive) | > 100 µM (inactive) |  |  | > 100 µM (inactive) | > 100 µM (inactive) |  |  | > 100 µM (inactive) | > 100 µM (inactive) | > 100 µM (inactive) |  | > 100 µM (inactive) | 48.4 µM (inactive)
7 | CCCCCCCCCCCCCCCCCCOP(=O)([O-])OCC[N+](C)(C)C [OCTADECYLPHOSPHONOCHOLINE] | 1.35 µM (inactive) | < 0.0488 µM (active) | 0.321 µM (active) | 0.366 µM (active) | 0.273 µM (active) | 1.02 µM (active) | 0.787 µM (active) | 0.877 µM (active) | 1.53 µM (inactive) | 0.276 µM (active) | 0.807 µM (active) | 0.736 µM (active) | 1.2 µM (inactive) | 8.22 µM (inactive) | 0.502 µM (active) | 0.771 µM (active) | 0.608 µM (active) |  | 0.317 µM (active) | 0.836 µM (active)
8 | O=S(O)CCCCCSSSCCCCCS(=O)O |  | > 100 µM (inactive) |  | 6.59 µM (inactive) | > 100 µM (inactive) | 6.5 µM (inactive) |  | 20.2 µM (inactive) | 85.5 µM (inactive) |  | 26.9 µM (inactive) |  | 84.3 µM (inactive) | 39.8 µM (inactive) | 53.5 µM (inactive) |  | > 100 µM (inactive) | 3.48 µM (inactive) | 24.7 µM (inactive) | 24.6 µM (inactive)
9 | Oc1c(C(Nc2cccc3cccnc23)c2ccccc2)ccc2cccnc12 (stereo not given) | 6.04 µM (inactive) | 3.91 µM (inactive) | 5.6 µM (inactive) | 1.57 µM (inactive) | 7.41 µM (inactive) | 3.49 µM (inactive) | 1.73 µM (inactive) | 5.77 µM (inactive) | 12.9 µM (inactive) | 3.88 µM (inactive) | 4.21 µM (inactive) | 3.87 µM (inactive) | 3.65 µM (inactive) |  | 9.48 µM (inactive) | 4.05 µM (inactive) |  | 2.61 µM (inactive) | 2.2 µM (inactive) | 
10 | O=C(O)c1ccccc1CN1CCCC(C(=O)O)C1 (stereo not given) | > 100 µM (inactive) | > 100 µM (inactive) | > 100 µM (inactive) |  | > 100 µM (inactive) | > 100 µM (inactive) | > 100 µM (inactive) | > 100 µM (inactive) | > 100 µM (inactive) | > 100 µM (inactive) | > 100 µM (inactive) | > 100 µM (inactive) | > 100 µM (inactive) | > 100 µM (inactive) | > 100 µM (inactive) | > 100 µM (inactive) | > 100 µM (inactive) | > 100 µM (inactive) |  | > 100 µM (inactive)
11 | Nc1nc(=O)c2c([nH]1)NCC(CNc1ccc(C(=O)N[C@@H](CCC(=O)O)C(=O)O)cc1)N2C=O (stereo not given in full) [LEUCOVORIN CALCIUM] | > 125 µM (inactive) |  | 102 µM (inactive) | 39.5 µM (inactive) | > 125 µM (inactive) | > 125 µM (inactive) | 81.1 µM (inactive) | > 125 µM (inactive) | > 95.3 µM (inactive) | > 125 µM (inactive) | > 125 µM (inactive) | > 125 µM (inactive) | > 125 µM (inactive) | > 125 µM (inactive) | 14.8 µM (inactive) | > 125 µM (inactive) | > 125 µM (inactive) |  | 39.5 µM (inactive) | > 125 µM (inactive)
12 | C[C@@]12[Se]c3ccccc3[C@]1(C)[Se]c1ccccc12 |  | > 100 µM (inactive) | > 100 µM (inactive) | 4.39 µM (inactive) | 6.95 µM (inactive) | > 100 µM (inactive) | > 100 µM (inactive) | > 100 µM (inactive) | > 100 µM (inactive) | 8.85 µM (inactive) | > 100 µM (inactive) | 38.7 µM (inactive) |  |  | > 100 µM (inactive) | 3.27 µM (inactive) | 3.79 µM (inactive) |  | 2.74 µM (inactive) | 2.57 µM (inactive)
13 | O=[N+]([O-])/C(C(Cl)=C(Cl)Cl)=C1\NCCS1 | > 100 µM (inactive) | 61 µM (inactive) | 45.7 µM (inactive) | 19.1 µM (inactive) | 69.7 µM (inactive) | 19.7 µM (inactive) | > 100 µM (inactive) | 33.3 µM (inactive) | > 100 µM (inactive) | 19 µM (inactive) | 39.9 µM (inactive) | > 100 µM (inactive) | 42.5 µM (inactive) | 48.2 µM (inactive) | 36.5 µM (inactive) | 56 µM (inactive) | 47.8 µM (inactive) | 18.4 µM (inactive) | 16.9 µM (inactive) | 
14 | C=C1C(=O)O[C@@H]2[C@H](O)[C@@H](C)[C@@H]3C=CC(=O)[C@@]3(C)[C@H](OC(=O)C=C(C)C)[C@H]12 | 2.94 µM (inactive) |  | 0.536 µM (active) | 0.183 µM (active) | 1.91 µM (inactive) | 0.587 µM (active) | 2 µM (inactive) | 0.895 µM (active) | 2.52 µM (inactive) | 0.294 µM (active) | 0.916 µM (active) | 2.8 µM (inactive) | 0.255 µM (active) | 0.514 µM (active) | 0.877 µM (active) | 0.353 µM (active) | 1.26 µM (inactive) |  | 0.2 µM (active) | 1.04 µM (active)
15 | N#CCCN(CCC#N)c1ccc(C(=N/c2ccc(Cl)cc2)/N=N/c2ccc(Cl)cc2)cc1 | 16.9 µM (inactive) | 18.2 µM (inactive) | 16.4 µM (inactive) | 35.2 µM (inactive) | 13.6 µM (inactive) |  | 17.3 µM (inactive) | 16.7 µM (inactive) | 17.2 µM (inactive) | 47.2 µM (inactive) | 15.7 µM (inactive) | 10.7 µM (inactive) | 17.8 µM (inactive) | 59.2 µM (inactive) | 17.7 µM (inactive) | 17.7 µM (inactive) | 19.8 µM (inactive) | 18.9 µM (inactive) |  | 20 µM (inactive)
16 | COC(=O)C1=C(C(=O)OC)C23CC1C1C(C(=O)OC)=C(C(=O)OC)C12C1C=CC3C2C(=O)OC(=O)C21 (stereo not given) | 49 µM (inactive) | 53.5 µM (inactive) |  | 40.4 µM (inactive) | 31 µM (inactive) | 44.5 µM (inactive) |  | 3.72 µM (inactive) | > 100 µM (inactive) | 32.3 µM (inactive) | 48.3 µM (inactive) | 53 µM (inactive) | 23.7 µM (inactive) | 65.5 µM (inactive) | 91.4 µM (inactive) | 37.5 µM (inactive) | 68.7 µM (inactive) |  | 40.1 µM (inactive) | 7.1 µM (inactive)
